The supplement of paper PMC10307832

What was measured:
Test in all cases: relative viability (nuclei count vs DMSO), 5 days (fraction); higher = more cells survive
EKVX = tested on: EKVX
Procedure, shortened: (§1)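 Cells from lung cancer lines were seeded into 1536-well plates and, one day later, dosed by pin tool. Treatments were either a single drug or a fixed dose of an anchor drug with five library-drug doses (not always all listed) in √10 steps. After 5 days, nuclei were stained in a one-step fixation (final 0.05% Triton X-100, 1% formaldehyde, 1 ug/ml Hoechst) and counted on 4× images, and relative viability is the treated-to-vehicle nuclei ratio, as the median of duplicate plates.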

ABC-1 = tested on: ABC-1
Procedure, shortened: as §1

NCI-H522 = tested on: NCI-H522
Procedure, shortened: as §1

NCI-H1648 = tested on: NCI-H1648
Procedure, shortened: as §1

NCI-H2126 = tested on: NCI-H2126
Procedure, shortened: as §1

NCI-H1623 = tested on: NCI-H1623
Procedure, shortened: as §1

O=C(O)c1ccc(-c2c[nH]c3ncc(-c4ccccc4)cc23)cc1C1CCCC1 + Cc1cc(Nc2cc(N3CCN(C)CC3)nc(Sc3ccc(NC(=O)C4CC4)cc3)n2)n[nH]1 [Tozasertib] (partner 0.1 µM)
relative viability (EKVX; first compound 0.04 µM): 0.404
relative viability (EKVX; first compound 0.1265 µM): 0.443
relative viability (EKVX; first compound 0.4 µM): 0.416
relative viability (EKVX; first compound 1.265 µM): 0.364
relative viability (ABC-1; first compound 0.04 µM): 0.2
relative viability (ABC-1; first compound 0.1265 µM): 0.192
relative viability (ABC-1; first compound 0.4 µM): 0.147
relative viability (ABC-1; first compound 1.265 µM): 0.18
relative viability (NCI-H522; first compound 0.04 µM): 0.537
relative viability (NCI-H522; first compound 0.1265 µM): 0.654
relative viability (NCI-H522; first compound 0.4 µM): 0.579
relative viability (NCI-H522; first compound 1.265 µM): 0.498
relative viability (NCI-H1648; first compound 0.04 µM): 0.545
relative viability (NCI-H1648; first compound 0.1265 µM): 0.635
relative viability (NCI-H1648; first compound 0.4 µM): 0.439
relative viability (NCI-H1648; first compound 1.265 µM): 0.378
relative viability (NCI-H2126; first compound 0.04 µM): 0.84
relative viability (NCI-H2126; first compound 0.1265 µM): 0.833
relative viability (NCI-H2126; first compound 0.4 µM): 0.868
relative viability (NCI-H2126; first compound 1.265 µM): 0.644
relative viability (NCI-H1623; first compound 0.04 µM): 0.421
relative viability (NCI-H1623; first compound 0.1265 µM): 0.488
relative viability (NCI-H1623; first compound 0.4 µM): 0.481
relative viability (NCI-H1623; first compound 1.265 µM): 0.398

NC(=O)Nc1cc(-c2cccc(F)c2)sc1C(=O)N[C@H]1CCCNC1 [AZD7762] + COc1cccc2cc(-c3nc([C@H]4CC[C@H](C(=O)O)CC4)n4ncnc(N)c34)[nH]c12 [OSI-027] (partner 0.5 µM)
relative viability (EKVX; first compound 0.01 µM): 0.726
relative viability (EKVX; first compound 0.03162 µM): 0.75
relative viability (EKVX; first compound 0.1 µM): 0.653
relative viability (EKVX; first compound 0.3162 µM): 0.604
relative viability (EKVX; first compound 1 µM): 0.628
relative viability (ABC-1; first compound 0.01 µM): 0.469
relative viability (ABC-1; first compound 0.03162 µM): 0.517
relative viability (ABC-1; first compound 0.1 µM): 0.414
relative viability (ABC-1; first compound 0.3162 µM): 0.349
relative viability (ABC-1; first compound 1 µM): 0.161
relative viability (NCI-H522; first compound 0.01 µM): 0.711
relative viability (NCI-H522; first compound 0.03162 µM): 0.683
relative viability (NCI-H522; first compound 0.1 µM): 0.696
relative viability (NCI-H522; first compound 0.3162 µM): 0.755
relative viability (NCI-H522; first compound 1 µM): 0.807
relative viability (NCI-H1648; first compound 0.01 µM): 0.244
relative viability (NCI-H1648; first compound 0.03162 µM): 0.257
relative viability (NCI-H1648; first compound 0.1 µM): 0.27
relative viability (NCI-H1648; first compound 0.3162 µM): 0.253
relative viability (NCI-H1648; first compound 1 µM): 0.294
relative viability (NCI-H2126; first compound 0.01 µM): 0.735
relative viability (NCI-H2126; first compound 0.03162 µM): 0.772
relative viability (NCI-H2126; first compound 0.1 µM): 0.783
relative viability (NCI-H2126; first compound 0.3162 µM): 0.871
relative viability (NCI-H2126; first compound 1 µM): 0.807
relative viability (NCI-H1623; first compound 0.01 µM): 0.44
relative viability (NCI-H1623; first compound 0.03162 µM): 0.464
relative viability (NCI-H1623; first compound 0.1 µM): 0.414
relative viability (NCI-H1623; first compound 0.3162 µM): 0.424
relative viability (NCI-H1623; first compound 1 µM): 0.378

NC(=O)Nc1cc(-c2cccc(F)c2)sc1C(=O)N[C@H]1CCCNC1 [AZD7762] + Cc1cc(Nc2cc(N3CCN(C)CC3)nc(Sc3ccc(NC(=O)C4CC4)cc3)n2)n[nH]1 [Tozasertib] (partner 0.1 µM)
relative viability (EKVX; first compound 0.01 µM): 0.393
relative viability (EKVX; first compound 0.03162 µM): 0.353
relative viability (EKVX; first compound 0.1 µM): 0.414
relative viability (EKVX; first compound 0.3162 µM): 0.394
relative viability (EKVX; first compound 1 µM): 0.255
relative viability (ABC-1; first compound 0.01 µM): 0.18
relative viability (ABC-1; first compound 0.03162 µM): 0.178
relative viability (ABC-1; first compound 0.1 µM): 0.16
relative viability (ABC-1; first compound 0.3162 µM): 0.115
relative viability (ABC-1; first compound 1 µM): 0.111
relative viability (NCI-H522; first compound 0.01 µM): 0.536
relative viability (NCI-H522; first compound 0.03162 µM): 0.657
relative viability (NCI-H522; first compound 0.1 µM): 0.621
relative viability (NCI-H522; first compound 0.3162 µM): 0.566
relative viability (NCI-H522; first compound 1 µM): 0.535
relative viability (NCI-H1648; first compound 0.01 µM): 0.527
relative viability (NCI-H1648; first compound 0.03162 µM): 0.552
relative viability (NCI-H1648; first compound 0.1 µM): 0.36
relative viability (NCI-H1648; first compound 0.3162 µM): 0.451
relative viability (NCI-H1648; first compound 1 µM): 0.425
relative viability (NCI-H2126; first compound 0.01 µM): 0.889
relative viability (NCI-H2126; first compound 0.03162 µM): 0.888
relative viability (NCI-H2126; first compound 0.1 µM): 0.937
relative viability (NCI-H2126; first compound 0.3162 µM): 0.831
relative viability (NCI-H2126; first compound 1 µM): 0.454
relative viability (NCI-H1623; first compound 0.01 µM): 0.4
relative viability (NCI-H1623; first compound 0.03162 µM): 0.43
relative viability (NCI-H1623; first compound 0.1 µM): 0.44
relative viability (NCI-H1623; first compound 0.3162 µM): 0.441
relative viability (NCI-H1623; first compound 1 µM): 0.39

C=C1C(=O)O[C@@H](CCCCCCCC)[C@@H]1C(=O)O [C-75] + COc1cccc2cc(-c3nc([C@H]4CC[C@H](C(=O)O)CC4)n4ncnc(N)c34)[nH]c12 [OSI-027] (partner 0.5 µM)
relative viability (EKVX; first compound 0.08 µM): 0.699
relative viability (EKVX; first compound 0.253 µM): 0.979
relative viability (EKVX; first compound 0.8 µM): 0.651
relative viability (EKVX; first compound 8 µM): 0.68
relative viability (ABC-1; first compound 0.08 µM): 0.498
relative viability (ABC-1; first compound 0.253 µM): 0.587
relative viability (ABC-1; first compound 0.8 µM): 0.479
relative viability (ABC-1; first compound 2.53 µM): 0.379
relative viability (ABC-1; first compound 8 µM): 0.35
relative viability (NCI-H522; first compound 0.08 µM): 0.744
relative viability (NCI-H522; first compound 0.253 µM): 0.819
relative viability (NCI-H522; first compound 0.8 µM): 0.753
relative viability (NCI-H522; first compound 8 µM): 0.641
relative viability (NCI-H1648; first compound 0.08 µM): 0.238
relative viability (NCI-H1648; first compound 0.253 µM): 0.301
relative viability (NCI-H1648; first compound 0.8 µM): 0.276
relative viability (NCI-H1648; first compound 8 µM): 0.267
relative viability (NCI-H2126; first compound 0.08 µM): 0.762
relative viability (NCI-H2126; first compound 0.253 µM): 0.757
relative viability (NCI-H2126; first compound 0.8 µM): 0.707
relative viability (NCI-H2126; first compound 2.53 µM): 0.744
relative viability (NCI-H2126; first compound 8 µM): 0.66
relative viability (NCI-H1623; first compound 0.08 µM): 0.463
relative viability (NCI-H1623; first compound 0.253 µM): 0.503
relative viability (NCI-H1623; first compound 0.8 µM): 0.416
relative viability (NCI-H1623; first compound 2.53 µM): 0.38
relative viability (NCI-H1623; first compound 8 µM): 0.457

C=C1C(=O)O[C@@H](CCCCCCCC)[C@@H]1C(=O)O [C-75] + Cc1cc(Nc2cc(N3CCN(C)CC3)nc(Sc3ccc(NC(=O)C4CC4)cc3)n2)n[nH]1 [Tozasertib] (partner 0.1 µM)
relative viability (EKVX; first compound 0.08 µM): 0.42
relative viability (EKVX; first compound 0.253 µM): 0.56
relative viability (EKVX; first compound 0.8 µM): 0.406
relative viability (EKVX; first compound 8 µM): 0.382
relative viability (ABC-1; first compound 0.08 µM): 0.137
relative viability (ABC-1; first compound 0.253 µM): 0.163
relative viability (ABC-1; first compound 0.8 µM): 0.198
relative viability (ABC-1; first compound 2.53 µM): 0.173
relative viability (ABC-1; first compound 8 µM): 0.183
relative viability (NCI-H522; first compound 0.08 µM): 0.585
relative viability (NCI-H522; first compound 0.253 µM): 0.598
relative viability (NCI-H522; first compound 0.8 µM): 0.489
relative viability (NCI-H522; first compound 8 µM): 0.497
relative viability (NCI-H1648; first compound 0.08 µM): 0.387
relative viability (NCI-H1648; first compound 0.253 µM): 1.26
relative viability (NCI-H1648; first compound 0.8 µM): 0.465
relative viability (NCI-H1648; first compound 8 µM): 0.468
relative viability (NCI-H2126; first compound 0.08 µM): 0.873
relative viability (NCI-H2126; first compound 0.253 µM): 0.949
relative viability (NCI-H2126; first compound 0.8 µM): 0.841
relative viability (NCI-H2126; first compound 2.53 µM): 0.795
relative viability (NCI-H2126; first compound 8 µM): 0.777
relative viability (NCI-H1623; first compound 0.08 µM): 0.471
relative viability (NCI-H1623; first compound 0.253 µM): 0.417
relative viability (NCI-H1623; first compound 0.8 µM): 0.477
relative viability (NCI-H1623; first compound 2.53 µM): 0.419
relative viability (NCI-H1623; first compound 8 µM): 0.461

CC1(C)CCC(c2ccc(Cl)cc2)=C(CN2CCN(c3ccc(C(=O)NS(=O)(=O)c4ccc(N[C@H](CCN5CCOCC5)CSc5ccccc5)c(S(=O)(=O)C(F)(F)F)c4)cc3)CC2)C1 [Navitoclax] + COc1cccc2cc(-c3nc([C@H]4CC[C@H](C(=O)O)CC4)n4ncnc(N)c34)[nH]c12 [OSI-027] (partner 0.5 µM)
relative viability (EKVX; first compound 0.005 µM): 0.684
relative viability (EKVX; first compound 0.01581 µM): 0.882
relative viability (EKVX; first compound 0.05 µM): 0.651
relative viability (EKVX; first compound 0.1581 µM): 0.686
relative viability (EKVX; first compound 0.5 µM): 0.737
relative viability (ABC-1; first compound 0.005 µM): 0.506
relative viability (ABC-1; first compound 0.01581 µM): 0.637
relative viability (ABC-1; first compound 0.05 µM): 0.397
relative viability (ABC-1; first compound 0.1581 µM): 0.572
relative viability (ABC-1; first compound 0.5 µM): 0.356
relative viability (NCI-H522; first compound 0.005 µM): 0.605
relative viability (NCI-H522; first compound 0.01581 µM): 0.705
relative viability (NCI-H522; first compound 0.05 µM): 0.702
relative viability (NCI-H522; first compound 0.1581 µM): 0.685
relative viability (NCI-H522; first compound 0.5 µM): 0.747
relative viability (NCI-H1648; first compound 0.005 µM): 0.257
relative viability (NCI-H1648; first compound 0.01581 µM): 0.256
relative viability (NCI-H1648; first compound 0.1581 µM): 0.253
relative viability (NCI-H1648; first compound 0.5 µM): 0.306
relative viability (NCI-H2126; first compound 0.005 µM): 0.764
relative viability (NCI-H2126; first compound 0.01581 µM): 0.849
relative viability (NCI-H2126; first compound 0.1581 µM): 0.72
relative viability (NCI-H2126; first compound 0.5 µM): 0.716
relative viability (NCI-H1623; first compound 0.005 µM): 0.419
relative viability (NCI-H1623; first compound 0.01581 µM): 0.376
relative viability (NCI-H1623; first compound 0.05 µM): 0.369
relative viability (NCI-H1623; first compound 0.1581 µM): 0.439
relative viability (NCI-H1623; first compound 0.5 µM): 0.373
